Values quoted from earlier work as cited in patent publication US9937141B2, “Carcinoma diagnosis and treatment, based on ODC1 genotype” (The Arizona Board of Regents on Behalf of the University of …, priority 2009, dated 2018).

Assays:
tumor putrescine = conditions: DFMO infusion, without suppressing peripheral platelet counts
[1] = human, in vivo
prostoglandin E2 (PGE2) = conditions: 300 mg/day, one month

In the case of `NCCCC(N)(C(=O)O)C(F)F` (racemic) [DFMO, 2-(difluoromethyl)-dl-ornithine], the “decrease in tumor putrescine levels” value (tumor putrescine) is listed as 90%.
In the case of `CC1=C(CC(=O)O)c2cc(F)ccc2/C1=C\c1ccc(S(C)(=O)=O)cc1` [Sulindac sulfone], the COX-inhibitory activity (COX) is listed as “lacks COX-inhibitory activity”.
For `CC1=C(CC(=O)O)c2cc(F)ccc2/C1=C\c1ccc([S+](C)[O-])cc1` (stereo not shown) [Sulindac, (Z)-5-fluoro-2-methyl-1-((4 (methylsulfin-yl)phenyl)methylene) 1H-indene-3-acetic acid], the “Skin rash and pruritus, patients affected” value [1] is listed as 5%, the “mild gastrointestinal effects, patients affected” value [1] is listed as about 20% and the “time to peak plasma levels” value (fasting patients) is listed as “about 2 hours”. The “drug absorbed after oral administration” value (oral) was “about 90%”.
For `CC(C)Cc1ccc(C(C)C(=O)O)cc1` (stereo not shown) [ibuprofen], the “PGE2 levels in flat mucosa” value (prostoglandin E2 (PGE2)) is given as “significant decrease”.
